For test [1], the target named is T1, human recombinant bradykinin B1 receptor (Homo sapiens, UniProt P46663).
T1 construct: host or cells: CHO cells, clone hB1-A5
T1 sequence (P46663 1-353): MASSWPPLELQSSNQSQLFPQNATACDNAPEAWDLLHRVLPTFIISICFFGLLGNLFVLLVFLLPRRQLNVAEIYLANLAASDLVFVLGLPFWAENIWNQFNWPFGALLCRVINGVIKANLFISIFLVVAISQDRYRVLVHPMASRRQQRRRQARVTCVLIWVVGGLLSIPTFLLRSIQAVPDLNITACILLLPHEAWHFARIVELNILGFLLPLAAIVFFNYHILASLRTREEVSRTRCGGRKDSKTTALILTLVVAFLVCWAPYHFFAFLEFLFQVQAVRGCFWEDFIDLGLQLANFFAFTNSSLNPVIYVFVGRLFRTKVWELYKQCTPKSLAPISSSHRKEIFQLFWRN
Description: Human recombinant bradykinin B1 receptor competitive radioligand binding. The conditions noted are these: hB1 expressed in CHO cells, [3H]-[Des-Arg10] Kallidin radioligand; read-out: B1 binding. As to the method:
Assessment of Ligand Binding Affinity to B1 and B2 Receptors In Vitro by Competitive Radioligand Binding Assay
Binding assays were carried out on human recombinant bradykinin) receptors (expressed in CHO cells, hB1-A5) according to the Euroscreen Technical Data Sheet (Cat.No.:ES-091). 20 μg protein/tube was incubated with [3,4-prolyl-3,4-^3H(N)]-[Des-Arg^10] Kallidin as radioligand. Non specific binding was determined in the presence of 10 μM Lys-des-Arg^9-Bradykinin. The final incubation volume was 250 μl. Samples were incubated for 15 min. at 25° C. then were rapidly vacuum filtered through GF/B filters presoaked for at least 1 h in 0.5% PEI. Radioactivity was determined by liquid scintillation spectroscopy.
The ligand displacement by the compounds was determined using a minimum of seven concentrations in triplicate, and experiments were repeated at least two times. The specific radioligand binding is defined as the difference between total binding and the non-specific binding determined in the presence of an excess of unlabelled ligand. Results are expressed as a percent inhibition of specific binding obtained in the presence of RGH-478 or reference drugs. IC50 values (i.e. concentration of compound giving 50% inhibition of specific binding) were calculated from concentration-displacement curves by sigmoidal fitting using GraphPad Prism Software 4.0. Ki values (i.e. inhibition constants) were calculated using the Cheng-Prusoff equation. KD was determined from the Scatchard plot. (Editor-in-chief: Enna, S. J. and Williams, M. Current protocols in pharmacology vol. 1. John Wiley & sons Inc., 1998)

In test [2] the target is T2, recombinant human B1 receptors (Homo sapiens, UniProt P46663).
T2 construct: host or cells: CHO (CHO-B1)
T2 sequence (P46663 1-353): T1 sequence (P46663 1-353)
In words: Functional assay: antagonist potency by cytosolic calcium measurement (plate reader fluorimeter) in CHO-B1 cells, agonist LysDABK. It counts as cell-based. The conditions noted are these: CHO-B1 cells, inhibition of LysDABK (EC80)-evoked [Ca2+]i elevation; read-out: B1 func. As for the experimental part:
Assessment of Antagonist Potency at B1 Receptors In Vitro by Measurement of Cytosolic Calcium Ion Concentration with a Plate Reader Fluorimeter in Cells Expressing Recombinant Human B1 Receptors
Chinese hamster ovary (CHO) cells stably expressing recombinant human B1 (CHO-B1, Euroscreen) receptors were cultured in Dulbecco's Modified Eagle's Medium (DMEM) containing 10% Fetal Calf Serum (FCS), 100 U/ml penicillin, 0.1 mg/ml streptomycin, 0.25 μg/ml amphotericin B, 1% Minimum Essential Medium Eagle (MEM), non essential amino acid solution, 600 μg/ml G418. Cells were kept at 37° C. in a humidified incubator in an atmosphere of 5% CO2/95% air and were passaged 1:4 three times a week. Cells were plated at 1.5−2.5×10^4 cell/well on standard 96-well microplates, measurements of cytosolic calcium ion concentration ([Ca^2+]i) were carried out 1-2 days after cell plating.
Measurements of [Ca^2+]i were carried out on CHO-B1 cells stably expressing human B1 receptors, respectively. Cells were grown in standard 96-well microplates and before the measurement were loaded with a fluorescent Ca^2+-sensitive dye, fluo-4/AM (2 μM): after removing the culture medium the dye was added to the cells (dissolved in assay buffer: 145 mM NaCl, 5 mM KCl, 2 mM MgCl2, 2 mM CaCl2, 10 mM HEPES, 20 mM D-glucose, 2 mM probenecid, 100 μl/well) and cells were incubated at 37° C. in a humidified incubator in an atmosphere of 5% CO2/95% air for 40-120 min. To stop dye loading cells were washed twice with assay buffer. After washing, various concentrations of the test compounds (diluted in extracellular medium from a DMSO stock solution, final DMSO concentration was <0.1%) or buffer were added to each well depending on the experimental setup. After incubation at 37° C. for 20-25 min. baseline and agonist-evoked changes of [Ca^2+]; were measured column by column with a plate reader fluorimeter (Fluoroskan Ascent, Labsystems). Excitation and detection of emission was carried out from the bottom of the plate. Filters used for Fluo-4: excitation filter 485 nm, emission filter 538 nm. The whole measurement process was performed at 37° C. and was controlled by custom software. Inhibitory potency of the test compounds was assessed by measuring the reduction in the agonist-evoked [Ca^2+]i-elevation in the presence of different concentrations of the compounds. The agonist was LysDABK for CHO-B1 cells. Agonist was applied at an EC80 concentration; the EC80-values were derived from daily determined dose-response curves. Fluorescence data were expressed as ΔF/F (fluorescence change normalized to baseline). All treatments on a single plate were measured in multiple wells. Data from all wells with the same treatment were averaged and the average values were used for analysis. Inhibitory potency of a compound at a single concentration point was expressed as percent inhibition of the control agonist response. Sigmoidal concentration-inhibition curves were fitted to the data (derived from at least three independent experiments) and IC50-values were determined as the concentration that produces half of the maximal inhibition caused by the compound.

Turning to `Cc1nc(-c2c(Cl)c3ccccc3n2-c2ccc(CNC(=O)C3(NC(=O)c4cccc(C(F)(F)F)c4)CC3)cc2)no1` [Example 177, N-(1-{4-[3-Chloro-2-(5-methyl-[1,2,4]oxadiazol-3-yl)-indol-1-yl]-benzylcarbamoyl}-cyclopropyl)-3-trifluoromethyl-benzamide], in test [1], the Ki lay within 20 to 100 nM. Moreover, the IC50 in test [2] was less than 20 nM.

Turning to `Cc1cnc(C(=O)NC2(C(=O)NCc3ccc(-n4c(-c5noc(C)n5)cc5cc(F)ccc54)cc3F)CC2)cn1` [Example 131, 5-Methyl-pyrazine-2-carboxylic acid (1-{2-fluoro-4-[5-fluoro-2-(5-methyl-[1,2,4]oxadiazol-3-yl)-indol-1-yl]-benzylcarbamoyl}-cyclopropyl)-amide], the Ki in test [1] is less than 20 nM. Further, the IC50 in test [2] was 20 to 100 nM.

As to `COC(=O)c1c(Cl)c2c(F)cccc2n1-c1ccc(CNC(=O)C2(NC(=O)C(F)(F)F)CC2)cc1` [Example 69, 3-Chloro-4-fluoro-1-[4-({[1-(2,2,2-trifluoro-acetylamino)-cyclopropanecarbonyl]-amino}-methyl)-phenyl]-1H-indole-2-carboxylic acid methyl ester], the Ki in test [1] lay within 20 to 100 nM. The IC50 in test [2] was in the range of 20 to 100 nM.

Take `Cc1nc(-c2c(Cl)c3ccccc3n2-c2ccc(CNC(=O)C3(NC(=O)C(F)(F)F)CC3)cc2)no1` [Example 23, 1-(2,2,2-Trifluoro-acetylamino)-cyclopropanecarboxylic acid 4-[3-chloro-2-(5-methyl-[1,2,4]oxadiazol-3-yl)-indol-1-yl]-benzylamide]: in test [1], the Ki is less than 20 nM. Further, the IC50 in test [2] is less than 20 nM.

Take `COc1cc(C(=O)NC2(C(=O)NCc3ccc(-n4c(-c5nnc(C)o5)c(Cl)c5cc(F)ccc54)cc3)CC2)on1` [Example 37, 3-Methoxy-isoxazole-5-carboxylic acid (1-{4-[3-chloro-5-fluoro-2-(5-methyl-[1,3,4]oxadiazol-2-yl)-indol-1-yl]-benzylcarbamoyl}-cyclopropyl)-amide]: the Ki in test [1] was less than 20 nM. Besides, in test [2], the IC50 was less than 20 nM.

Consider `Cc1nc(-c2c(Cl)c3ccccc3n2-c2ccc(CNC(=O)C3(NC(=O)c4cccc(=O)[nH]4)CC3)cc2)no1` [Example 162, 6-Oxo-1,6-dihydro-pyridine-2-carboxylic acid (1-{4-[3-chloro-2-(5-methyl-[1,2,4]oxadiazol-3-yl)-indol-1-yl]-benzylcarbamoyl}-cyclopropyl)-amide], for which, in test [1], the Ki was less than 20 nM. For the same compound, the IC50 in test [2] is less than 20 nM.

On to `COc1cc(C(=O)NC2(C(=O)NCc3ccc(-n4c(-c5noc(C)n5)c(Cl)c5cc(F)ccc54)cc3)CC2)on1` [Example 67, 3-Methoxy-isoxazole-5-carboxylic acid (1-{4-[3-chloro-5-fluoro-2-(5-methyl-[1,2,4]oxadiazol-3-yl)-indol-1-yl]-benzylcarbamoyl}-cyclopropyl)-amide], for which, in test [1], the Ki was less than 20 nM. Further, the IC50 in test [2] is less than 20 nM.

On to `Cn1nnc(-c2c(Cl)c3cc(Cl)ccc3n2-c2ccc(CNC(=O)C3(NC(=O)C(F)(F)F)CC3)c(F)c2)n1` [Example 22, 1-(2,2,2-Trifluoro-acetylamino)-cyclopropanecarboxylic acid 4-[3,5-dichloro-2-(2-methyl-2H-tetrazol-5-yl)-indol-1-yl]-2-fluoro-benzylamide], for which, in test [1], the Ki is less than 20 nM. For the same compound, the IC50 in test [2] is less than 20 nM.

In the case of `Cc1nc(-c2c(Cl)c3ccccc3n2-c2ccc(CNC(=O)C3(NC(=O)c4cccc(Br)n4)CC3)cc2)no1` [Example 157, 6-Bromo-pyridine-2-carboxylic acid (1-{4-[3-chloro-2-(5-methyl-[1,2,4]oxadiazol-3-yl)-indol-1-yl]-benzylcarbamoyl}-cyclopropyl)-amide], in test [1], the Ki was less than 20 nM. In addition, the IC50 in test [2] lay within 20 to 100 nM.

`Cn1nnc(-c2c(Cl)c3ccccc3n2-c2ccc(CNC(=O)C3(NC(=O)c4cccnc4Cl)CC3)cc2)n1` [Example 27, 2-Chloro-N-(1-{4-[3-chloro-2-(2-methyl-2H-tetrazol-5-yl)-indol-1-yl]-benzylcarbamoyl}-cyclopropyl)-nicotinamide]: in test [1], the Ki is less than 20 nM. The IC50 in test [2] was less than 20 nM.

`COC(=O)c1c(Cl)c2ccccc2n1-c1ccc(CNC(=O)C2(NC(=O)C(F)(F)F)CC2)cc1` [Example 10, 3-Chloro-1-[4-({[1-(2,2,2-trifluoro-acetylamino)-cyclopropanecarbonyl]-amino}-methyl)-phenyl]-1H-indole-2-carboxylic acid methyl ester]: the Ki in test [1] is less than 20 nM. Further, the IC50 in test [2] was less than 20 nM.

For the compound `Cc1nc(-c2c(Cl)c3ccccc3n2-c2ccc(CNC(=O)C3(NC(=O)c4cncc(C(F)(F)F)c4)CC3)cc2)no1` [Example 180, N-(1-{4-[3-Chloro-2-(5-methyl-[1,2,4]oxadiazol-3-yl)-indol-1-yl]-benzylcarbamoyl}-cyclopropyl)-5-trifluoromethyl-nicotinamide], the Ki in test [1] is less than 20 nM. The IC50 in test [2] is less than 20 nM.

Take `Cc1nc(-c2c(Cl)c3ccccc3n2-c2ccc([C@@H](C)NC(=O)C3(NC(=O)C(F)(F)F)CC3)c(F)c2)no1` [Example 190, 1-(2,2,2-Trifluoro-acetylamino)-cyclopropanecarboxylic acid ((R)-1-{4-[3-chloro-2-(5-methyl-[1,2,4]oxadiazol-3-yl)-indol-1-yl]-2-fluoro-phenyl}-ethyl)-amide]: the Ki in test [1] was less than 20 nM. Moreover, the IC50 in test [2] was less than 20 nM.

Turning to `Cn1nnc(-c2c(Cl)c3ccccc3n2-c2ccc(CNC(=O)C3(NC(=O)c4cccnc4F)CC3)cc2)n1` [Example 119, N-(1-{4-[3-Chloro-2-(2-methyl-2H-tetrazol-5-yl)-indol-1-yl]-benzylcarbamoyl}-cyclopropyl)-2-fluoro-nicotinamide], in test [1], the Ki was less than 20 nM. Besides, the IC50 in test [2] was less than 20 nM.

Regarding `Cc1nc(-c2c(Cl)c3ccccc3n2-c2ccc(CNC(=O)C3(NC(=O)C4CNC(=O)N4)CC3)cc2)no1` (stereo not drawn) [Example 122, 2-Oxo-imidazolidine-4-carboxylic acid (1-{4-[3-chloro-2-(5-methyl-[1,2,4]oxadiazol-3-yl)-indol-1-yl]-benzylcarbamoyl}-cyclopropyl)-amide], the Ki in test [1] fell in the range of 20 to 100 nM. Further, the IC50 in test [2] was in the range of 20 to 100 nM.

(Values after patent US20130217702A1 (Richter Gedeon Nyrt., priority 2010, published 2013).)
